The record followed here is US11493517B2, “Eukaryotic translation initiation factors (EIFS) as novel biomarkers in head and neck squamous cell carcinoma (HNSCC)” (Otto-von-Guericke-Universität Magdeburg, priority 2020, dated 2022).

The subject of test [1] is 3D-organoids of HNSCC derived from patient populations. The test can be described thus: Patient derived 3D-organoids chemosensitivity testing (CellTiter-Glo luminescence cell viability assay). Format: cell-based. The note with it: for IC50: Homo sapiens, patient derived HNSCC 3D-organoids, 72 h incubation. The procedure: Patient Derived 3D-Organoids (PD30} and Chemosensitivity Testing Tumor samples from patients, who have undergone resection in the ENT clinic of Otto-von-Guericke University in Magdeburg, were incubated overnight in the RPM medium containing penicillin, streptomycin and amphotericin. On the following day, the tissue samples were crushed, passed through a sieve set to produce a size fraction of between […], which were then incubated on 24-well plates at 37° C. The PD30s were incubated with Salubrinal in a 384-well culture plate for 72 h (i.e. the double population doubling time}. Thereafter, the CellTiter-Glo® luminescence cell viability assay was performed. The reagent mixture was assembled according to the manufacturer's instructions. All experiments were performed three times with three repetitions

For test [2], the system named is moderately differentiated laryngeal cancer cell lines (SNU-899, SNU-1066, SNU-1214). The test can be described thus: MTT cell viability assay in cell culture. Format: cell-based. Here is the method: MTT Assay in Cell Culture Cell viability assays were carried out with 3 moderately differentiated laryngeal cancer cell lines (SNU-899, SNU-1066, SNU-1214}. MTT reagent stock solution was prepared by dissolving 5 mg crystal in 1 ml PBS and filter sterilization. The cell culture medium was aspirated and replaced by 100 μl fresh medium and 10 μl MTT stock solution per well. The plates were incubated at 37° C. for two hours. The supernatant was removed and 100 μl DMSO was added to each well. After 15-minute incubation at room temperature in a orbital shaker the absorption at […] was detected. All measurements were performed three times using GloMax@-Multi+Microplate Multimode Reader (Promega, Germany}. All experiments were performed three times with three repetitions.
Background: Formazan colour is commonly taken as a measure of viable cells.

The structures appear in SMILES notation. Where two headings read alike, the source gives them in different places.

Consider `O=C(/C=C/c1ccccc1)NC(NC(=S)Nc1cccc2cccnc12)C(Cl)(Cl)Cl` (centres unmarked) [Salubrinal], for which the IC50 in test [1] (read-out: IC50 range across samples, reduction of cell viability, range over samples) is 16 to 158 µM; in test [1] (read-out: average IC50, reduction of cell viability, average over samples), 56 µM. The “effect on cell viability in 3D-cell culture (FIG. 5)” value in test [1] (in words) is listed as “reduction of cell viability”. For the same compound, the cytotoxicity at 50 µM in test [2] (effect dependent on the cell line and on the dosage, highest efficacy at 50 μM after 72 hours, read-out: reduction of the viability of the cells) lay within 20 to 40%. Besides, the “effect on cell viability (FIG. 4)” value in test [2] (in words) is reported as “reduction in cell viability”.

A word on the IC50: it is the point on the concentration scale where inhibition reaches its midpoint.
